The values below come from paper PMC7993260 (Clinical and Translational Science, 2020).

Like-named read-outs stand apart in the source and are kept apart here.

The subject of data set [1] is OATP1A2. The settings on record: in vitro; cited from earlier work.
The subject of data set [2] is OATP1B1. The settings on record: in vitro; cited from earlier work.
Data set [3] relates to OATP2B1. The settings on record: in vitro; cited from earlier work.
For data set [4] the following is noted: cited from earlier work.
In data set [5] the test system is PEPT1. The conditions noted are these: Caco-2 cells; cited from earlier work.
The format of data set [6] is in vivo, human. The settings on record: for A e, amount excreted unchanged into urine over 24 hours / CL renal / AUC(0-t) / AUC(0-inf): geometric mean; for CL renal: plasma and urine, CLrenal; for AUC(0-inf): AUC0–∞.
Data set [7] is described as follows: Acute hemodynamic response to lisinopril. It is filed as in vivo, human.
Setting [8] is: stated as similar for lisinopril and nadolol.

For `O=C(O[C@@H]1Cc2c(O)cc(O)cc2O[C@@H]1c1cc(O)c(O)c(O)c1)c1cc(O)c(O)c(O)c1` [EGCG, (–)‐epigallocatechin gallate], in data set [1], the “inhibition of OATP1A2 activity” value is given as “have been shown to inhibit”. The “inhibition of OATP1B1 activity” value in data set [2] was “have been shown to inhibit”. Moreover, the “inhibition of OATP2B1 activity” value in data set [3] is given as “have been shown to inhibit”.
For `CC(C)(C)NCC(O)COc1cccc2c1CC(O)C(O)C2` (stereo not drawn) [nadolol], the oral bioavailability entry in data set [4] (setting [8]) is given as “ca. 30%”.
Regarding (–)‐epicatechin gallate, the “inhibition of uptake transport of glycyl-sarcosine, a typical substrate of PEPT1” value in data set [5] was “not inhibiting”. Moreover, the “inhibition of OATP1A2 activity” value in data set [1] is given as “have been shown to inhibit”. For the same compound, in data set [2], the “inhibition of OATP1B1 activity” value is on record as “have been shown to inhibit”. In data set [3], the “inhibition of OATP2B1 activity” value is on record as “have been shown to inhibit”.
With `NCCCC[C@H](N[C@@H](CCc1ccccc1)C(=O)O)C(=O)N1CCC[C@H]1C(=O)O` [lisinopril], the “decrease in AUC0-24 in the GTE phase compared with control phase” value in data set [6] (GTE vs control, P < 0.001) was determined as 69%. The “decrease in AUC0–∞ in the GTE phase compared with control phase” value in data set [6] (GTE vs control, P < 0.001) came out at 67%. Also, the “decrease in C max in the GTE phase compared with control phase” value in data set [6] (GTE vs control, P < 0.001) amounted to 71%. In addition, the “A e, amount excreted unchanged into urine over 24 hours” value stood at 0.54 mg in data set [6] (GTE) and 1.75 mg in data set [6] (control (water)). Also, the CL renal came out at 56.9 mL/min in data set [6] (both, human, po, 10 mg, GTE) and 57.7 mL/min in data set [6] (both, human, po, 10 mg, control (water)). The Tmax (as a rule, the time at which the peak concentration occurs) in data set [6] (both, human, plasma, po, 10 mg) worked out at 6 h. Also, the AUC(0-t) (commonly exposure summed from dosing to a finite time, without extrapolation to infinity) came out at 157 ng·h/mL in data set [6] (both, human, plasma, po, 10 mg, AUC0–24, GTE) and 504 ng·h/mL in data set [6] (both, human, plasma, po, 10 mg, AUC0–24, control (water)). For the same compound, the AUC(0-inf) (usually the area under the concentration-time curve extrapolated to infinity) in data set [6] (both, human, plasma, po, 10 mg, GTE) is 186 ng·h/mL; in data set [6] (both, human, plasma, po, 10 mg, control (water)) it was 554 ng·h/mL. For the same compound, the “A e GMR (GTE/control)” value in data set [6] (geometric mean ratio GTE/control) came to 0.307. Besides, the adverse events result in data set [6] (ten subjects who completed the study, both phases) was “no adverse events”. For the same compound, the DBP in data set [7] (GTE phase, 6 hours after 10 mg oral lisinopril, mean ± SD, baseline 68 ± 10 mmHg) is reported as 55 ± 4 mmHg. For the same compound, the “mean maximum decrease of DBP from baseline” value in data set [7] (both phases, at 6 hours after the administration) was “about 20%”. Also, in data set [7] (single oral dose 10 mg lisinopril), the “SBP and PR, control vs GTE phases” value is recorded as “no differences”. Also, the oral bioavailability in data set [4] is recorded as 29%; in data set [4] (setting [8]), “ca. 30%”.
